Where two headings read alike, the source gives them in different places.
Legend:
PI3K-γ = PI3K-γ (Homo sapiens, UniProt P48736); experiment: PI3K-gamma fluorescence polarization assay
PI3K-α = PI3K-α (Homo sapiens, UniProt P42336); experiment: PI3K-alpha fluorescence polarization assay; settings: read-out: IC50 PI3Kα
PI3K-α, sequence (P42336 whole entry, species assumed): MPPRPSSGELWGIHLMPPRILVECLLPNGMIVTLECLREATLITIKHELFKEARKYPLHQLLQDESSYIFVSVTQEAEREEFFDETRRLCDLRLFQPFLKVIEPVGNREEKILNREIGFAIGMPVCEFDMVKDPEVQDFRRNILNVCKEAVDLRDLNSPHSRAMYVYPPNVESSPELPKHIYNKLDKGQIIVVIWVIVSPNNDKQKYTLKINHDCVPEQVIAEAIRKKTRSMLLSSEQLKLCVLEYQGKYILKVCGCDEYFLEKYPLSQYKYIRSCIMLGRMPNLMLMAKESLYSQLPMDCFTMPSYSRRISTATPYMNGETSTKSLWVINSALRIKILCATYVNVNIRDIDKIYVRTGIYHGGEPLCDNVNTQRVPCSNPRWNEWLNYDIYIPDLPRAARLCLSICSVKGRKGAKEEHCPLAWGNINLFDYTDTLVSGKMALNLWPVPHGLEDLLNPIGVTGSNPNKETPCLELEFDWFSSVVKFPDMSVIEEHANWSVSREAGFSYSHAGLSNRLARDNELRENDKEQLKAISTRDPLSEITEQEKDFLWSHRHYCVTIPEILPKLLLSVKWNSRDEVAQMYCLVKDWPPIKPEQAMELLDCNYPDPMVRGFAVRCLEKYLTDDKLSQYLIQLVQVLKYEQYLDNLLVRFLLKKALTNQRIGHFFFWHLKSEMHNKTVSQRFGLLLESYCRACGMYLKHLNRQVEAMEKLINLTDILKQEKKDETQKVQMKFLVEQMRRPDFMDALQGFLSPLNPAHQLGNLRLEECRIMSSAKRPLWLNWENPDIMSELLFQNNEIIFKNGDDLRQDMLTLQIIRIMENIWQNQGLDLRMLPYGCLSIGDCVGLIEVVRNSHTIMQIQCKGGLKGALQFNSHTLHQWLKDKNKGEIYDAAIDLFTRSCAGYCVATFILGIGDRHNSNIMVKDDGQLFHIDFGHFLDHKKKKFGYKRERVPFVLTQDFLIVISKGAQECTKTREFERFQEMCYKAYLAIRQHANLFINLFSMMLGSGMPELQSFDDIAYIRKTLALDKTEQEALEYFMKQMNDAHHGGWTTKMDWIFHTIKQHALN
PI3K-α, sequence (P27986 whole entry partner, species assumed): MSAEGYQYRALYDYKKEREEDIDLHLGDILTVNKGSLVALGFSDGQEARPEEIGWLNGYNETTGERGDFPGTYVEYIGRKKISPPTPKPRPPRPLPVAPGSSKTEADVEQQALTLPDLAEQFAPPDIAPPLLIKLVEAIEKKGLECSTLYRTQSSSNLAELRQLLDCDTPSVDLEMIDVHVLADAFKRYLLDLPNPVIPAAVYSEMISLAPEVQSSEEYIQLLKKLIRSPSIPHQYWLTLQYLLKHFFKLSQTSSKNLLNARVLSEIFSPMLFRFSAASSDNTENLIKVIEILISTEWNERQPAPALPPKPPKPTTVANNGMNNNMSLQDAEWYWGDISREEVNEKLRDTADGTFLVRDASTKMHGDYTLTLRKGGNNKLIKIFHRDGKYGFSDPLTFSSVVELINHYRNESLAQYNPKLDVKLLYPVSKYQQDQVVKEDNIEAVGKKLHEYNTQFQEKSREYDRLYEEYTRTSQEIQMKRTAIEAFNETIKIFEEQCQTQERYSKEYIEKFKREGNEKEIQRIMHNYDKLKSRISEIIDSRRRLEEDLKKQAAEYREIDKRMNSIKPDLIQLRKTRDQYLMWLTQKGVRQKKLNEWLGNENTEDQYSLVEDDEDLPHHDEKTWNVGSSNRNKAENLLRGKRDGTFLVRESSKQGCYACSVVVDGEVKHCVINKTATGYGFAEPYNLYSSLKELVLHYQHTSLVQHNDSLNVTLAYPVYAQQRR

PI3K-γ, sequence (P48736 whole entry, species assumed): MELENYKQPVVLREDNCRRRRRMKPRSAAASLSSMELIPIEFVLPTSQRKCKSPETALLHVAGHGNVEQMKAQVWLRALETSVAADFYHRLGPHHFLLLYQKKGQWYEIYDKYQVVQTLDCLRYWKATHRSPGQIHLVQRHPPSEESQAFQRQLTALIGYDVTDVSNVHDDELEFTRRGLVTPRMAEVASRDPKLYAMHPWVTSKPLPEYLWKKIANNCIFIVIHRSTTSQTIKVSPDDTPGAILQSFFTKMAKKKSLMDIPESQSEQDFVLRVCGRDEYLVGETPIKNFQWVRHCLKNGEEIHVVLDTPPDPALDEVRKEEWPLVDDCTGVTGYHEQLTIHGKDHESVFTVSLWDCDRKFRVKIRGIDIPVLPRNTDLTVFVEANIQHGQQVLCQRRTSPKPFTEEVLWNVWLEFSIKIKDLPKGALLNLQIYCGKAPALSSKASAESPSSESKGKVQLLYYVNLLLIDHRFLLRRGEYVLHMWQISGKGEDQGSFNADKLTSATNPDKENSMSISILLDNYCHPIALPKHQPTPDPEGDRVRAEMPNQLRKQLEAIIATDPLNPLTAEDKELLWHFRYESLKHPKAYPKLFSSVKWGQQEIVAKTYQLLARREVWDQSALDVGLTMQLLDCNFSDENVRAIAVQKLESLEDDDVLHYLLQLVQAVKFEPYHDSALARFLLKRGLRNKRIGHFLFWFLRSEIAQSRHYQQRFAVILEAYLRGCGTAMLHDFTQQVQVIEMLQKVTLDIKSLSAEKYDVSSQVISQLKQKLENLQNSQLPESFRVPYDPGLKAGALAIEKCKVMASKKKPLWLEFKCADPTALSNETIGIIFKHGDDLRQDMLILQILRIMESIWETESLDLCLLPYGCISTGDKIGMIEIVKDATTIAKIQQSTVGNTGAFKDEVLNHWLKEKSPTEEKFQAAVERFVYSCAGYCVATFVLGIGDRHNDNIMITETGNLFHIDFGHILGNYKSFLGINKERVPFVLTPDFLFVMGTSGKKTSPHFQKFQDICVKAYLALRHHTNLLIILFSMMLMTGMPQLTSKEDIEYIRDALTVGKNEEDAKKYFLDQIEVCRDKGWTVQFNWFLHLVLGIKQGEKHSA

Structure (SMILES) | IC50 (PI3K-γ; read-out: IC50 PI3Kγ) [nM] | also measured
CC(C)Nc1nc(-c2ccc(NC(=O)Nc3ccc(N4CCN(C)CC4)cc3)cc2)nc(N2C3CCC2COC3)n1 [Example 378, 1-(4-(4-(3-oxa-8-azabicyclo[3.2.1]octan-8-yl)-6-(isopropylamino)-1,3,5-triazin-2-yl)phenyl)-3-(4-(4-methylpiperazin-1-yl)phenyl)urea] | 5380 | –
CC(C)N1CCN(C(=O)c2ccc(NC(=O)Nc3ccc(-c4nc(N5C6CCC5COC6)nc(N5CCOC[C@@H]5C)n4)cc3)cc2)CC1 [Example 830, 1-(4-{4-[(3S)-3-methylmorpholin-4-yl]-6-(3-oxa-8-azabicyclo[3.2.1]oct-8-yl)-1,3,5-triazin-2-yl}phenyl)-3-(4-{[4-(propan-2-yl)piperazin-1-yl]carbonyl}phenyl)urea] | 70.5 | –
CC(C)N1CCN(c2ccc(NC(=O)Nc3ccc(-c4nc(N5C6CCC5COC6)nc(N5CCOC[C@H]5C)n4)cc3)cc2)CC1 [Example 441, 1-(4-(4-(3-oxa-8-azabicyclo[3.2.1]octan-8-yl)-6-((R)-3-methylmorpholino)-1,3,5-triazin-2-yl)phenyl)-3-(4-(4-isopropylpiperazin-1-yl)phenyl)urea] | – | IC50 (PI3K-γ): > 10000 nM
CN1CCN(c2ccc(NC(=O)Nc3ccc(-c4nc(N5C[C@@H]6C[C@H]5CO6)nc(N5C[C@@H]6C[C@H]5CO6)n4)cc3)cc2)CC1 [Example 312, 1-{4-[4,6-di-(1S,4S)-2-oxa-5-azabicyclo[2.2.1]hept-5-yl-1,3,5-triazin-2-yl]phenyl}-3-[4-(4-methylpiperazin-1-yl)phenyl]urea] | 10000 | IC50 (PI3K-α): 3440 nM
C[C@@H]1COCCN1c1nc(-c2ccc(NC(=O)Nc3ccc(OCCN(C)C)cc3)cc2)nc(N2C3CCC2COC3)n1 [Example 419, 1-(4-(4-(3-oxa-8-azabicyclo[3.2.1]octan-8-yl)-6-((R)-3-methylmorpholino)-1,3,5-triazin-2-yl)phenyl)-3-(4-(2-(dimethylamino)ethoxy)phenyl)urea] | 4270 | –
CCN1CCN(c2ccc(NC(=O)Nc3ccc(-c4nc(N5C6CCC5COC6)nc(N5CCOC[C@H]5C)n4)cc3)cc2)CC1 [Example 440, 1-(4-(4-(3-oxa-8-azabicyclo[3.2.1]octan-8-yl)-6-((R)-3-methylmorpholino)-1,3,5-triazin-2-yl)phenyl)-3-(4-(4-ethylpiperazin-1-yl)phenyl)urea] | – | IC50 (PI3K-γ): > 10000 nM
CNCc1ccc(NC(=O)Nc2ccc(-c3nc(N4C5CCC4COC5)nc(N4C5CCC4COC5)n3)cc2)cc1 [Example 288, 1-[4-(4,6-di-3-oxa-8-azabicyclo[3.2.1]oct-8-yl-1,3,5-triazin-2-yl)phenyl]-3-{4-[(methylamino)methyl]phenyl}urea] | 2780 | –
CN1CCN(C(=O)c2ccc(NC(=O)Nc3ccc(-c4nc(C5CCOCC5)nc(N5C6CCC5COC6)n4)cc3)cc2)CC1 [Example 438, 1-(4-(4-(3-oxa-8-azabicyclo[3.2.1]octan-8-yl)-6-(tetrahydro-2H-pyran-4-yl)-1,3,5-triazin-2-yl)phenyl)-3-(4-(4-methylpiperazine-1-carbonyl)phenyl)urea] | 663 | –
Cc1nc(-c2ccc(NC(=O)Nc3ccc(C(=O)NC4CCN(C)CC4)cc3)cc2)nc(N2CCOCC2)n1 [Example 164, 4-({[4-(4-methyl-6-morpholin-4-yl-1,3,5-triazin-2-yl)phenyl]carbamoyl}amino)-N-(1-methylpiperidin-4-yl)benzamide] | 1380 | IC50 (PI3K-α): 378 nM
CN(C)CCOc1ccc(NC(=O)Nc2ccc(-c3nc(N4C5CCC4COC5)nc(N4C5CCC4COC5)n3)cc2)cc1 [Example 289, 1-{4-[2-(dimethylamino)ethoxy]phenyl}-3-[4-(4,6-di-3-oxa-8-azabicyclo[3.2.1]oct-8-yl-1,3,5-triazin-2-yl)phenyl]urea] | 3880 | –
C[C@@H]1COCCN1c1nc(-c2ccc(NC(=O)Nc3ccc(C(=O)N4CCN(C)CC4)cc3)cc2)nc(N2C3CCC2COC3)n1 [Example 444, 1-(4-(4-(3-oxa-8-azabicyclo[3.2.1]octan-8-yl)-6-((R)-3-methylmorpholino)-1,3,5-triazin-2-yl)phenyl)-3-(4-(4-methylpiperazine-1-carbonyl)phenyl)urea] | 1100 | –
C[C@@H]1COCCN1c1nc(-c2ccc(NC(=O)Nc3ccc(N4CCN(C)CC4)nc3)cc2)nc(C2CCOCC2)n1 [Example 433, (R)-1-(4-(4-(3-methylmorpholino)-6-(tetrahydro-2H-pyran-4-yl)-1,3,5-triazin-2-yl)phenyl)-3-(6-(4-methylpiperazin-1-yl)pyridin-3-yl)urea] | 1510 | IC50 (PI3K-α): 220 nM
Cc1ccc(-c2nc(-c3ccc(NC(=O)Nc4cccc(C(=O)O)c4)cc3)nc(N3CCOCC3)n2)cc1 [Example 577, 3-[({4-[4-(4-methylphenyl)-6-morpholin-4-yl-1,3,5-triazin-2-yl]phenyl}carbamoyl)amino]benzoic acid] | 104 | IC50 (PI3K-α): 63 nM
CN(C)[C@H]1CCN(C(=O)c2ccc(NC(=O)Nc3ccc(-c4nc(N5CCOCC5)nc(N5C6CCC5COC6)n4)cc3)cc2)C1 [Example 516, 1-(4-{[(3S)-3-(dimethylamino)pyrrolidin-1-yl]carbonyl}phenyl)-3-{4-[4-morpholin-4-yl-6-(3-oxa-8-azabicyclo[3.2.1]oct-8-yl)-1,3,5-triazin-2-yl]phenyl}urea] | 17 | IC50 (PI3K-α): 2.1 nM; IC50 (PI3K-α; listed as 824): 2 nM; IC50 (PI3K-α; listed as 827): 2.15 nM
CC(C)N1CCN(C(=O)c2ccc(NC(=O)Nc3ccc(-c4nc(N5C6CCC5COC6)nc(N5CCOC[C@H]5C)n4)cc3)cc2)CC1 [Example 445, 1-(4-(4-(3-oxa-8-azabicyclo[3.2.1]octan-8-yl)-6-((R)-3-methylmorpholino)-1,3,5-triazin-2-yl)phenyl)-3-(4-(4-isopropylpiperazine-1-carbonyl)phenyl)urea] | 1000 | –
CC(C)N(C)c1nc(-c2ccc(NC(=O)Nc3ccc(N4CCN(C)CC4)cc3)cc2)nc(N2C3CCC2COC3)n1 [Example 389, 1-(4-(4-(3-oxa-8-azabicyclo[3.2.1]octan-8-yl)-6-(isopropyl(methyl)amino)-1,3,5-triazin-2-yl)phenyl)-3-(4-(4-methylpiperazin-1-yl)phenyl)urea] | 5660 | –
C[C@H]1COCCN1c1nc(-c2ccc(NC(=O)Nc3ccc(C(=O)N4CCN(C)CC4)cc3)cc2)nc(N2C3CCC2COC3)n1 [Example 835, 1-(4-{4-[(3S)-3-methylmorpholin-4-yl]-6-(3-oxa-8-azabicyclo[3.2.1]oct-8-yl)-1,3,5-triazin-2-yl}phenyl)-3-{4-[(4-methylpiperazin-1-yl)carbonyl]phenyl}urea] | 66 | –
O=C(Nc1ccc(CO)cc1)Nc1ccc(-c2nc(N3C4CCC3COC4)nc(N3C4CCC3COC4)n2)cc1 [Example 287, 1-[4-(4,6-di-3-oxa-8-azabicyclo[3.2.1]oct-8-yl-1,3,5-triazin-2-yl)phenyl]-3-[4-(hydroxymethyl)phenyl]urea] | 3300 | –
CCN1CCN(c2ccc(NC(=O)Nc3ccc(-c4nc(C5CCOCC5)nc(N5C6CCC5COC6)n4)cc3)cc2)CC1 [Example 434, 1-(4-(4-(3-oxa-8-azabicyclo[3.2.1]octan-8-yl)-6-(tetrahydro-2H-pyran-4-yl)-1,3,5-triazin-2-yl)phenyl)-3-(4-(4-ethylpiperazin-1-yl)phenyl)urea] | 4740 | –
CN1CCN(c2ccc(NC(=O)Nc3ccc(-c4nc(C5=CCOCC5)nc(N5C6CCC5COC6)n4)cc3)cc2)CC1 [Example 405, 1-(4-(4-(3-oxa-8-azabicyclo[3.2.1]octan-8-yl)-6-(3,6-dihydro-2H-pyran-4-yl)-1,3,5-triazin-2-yl)phenyl)-3-(4-(4-methylpiperazin-1-yl)phenyl)urea] | 193 | –
CN(C)C1CCN(c2ccc(NC(=O)Nc3ccc(-c4nc(C5CCOCC5)nc(N5C6CCC5COC6)n4)cc3)cc2)CC1 [Example 437, 1-(4-(4-(3-oxa-8-azabicyclo[3.2.1]octan-8-yl)-6-(tetrahydro-2H-pyran-4-yl)-1,3,5-triazin-2-yl)phenyl)-3-(4-(4-(dimethylamino)piperidin-1-yl)phenyl)urea] | 1610 | –
CN1CCN(c2ccc(NC(=O)Nc3ccc(-c4nc(C5CCOCC5)nc(N5C6CCC5COC6)n4)cc3)cc2)CC1 [Example 407, 1-(4-(4-(3-oxa-8-azabicyclo[3.2.1]octan-8-yl)-6-(tetrahydro-2H-pyran-4-yl)-1,3,5-triazin-2-yl)phenyl)-3-(4-(4-methylpiperazin-1-yl)phenyl)urea] | 2260 | –
O=C(Nc1ccncc1)Nc1ccc(-c2nc(NS(=O)(=O)c3ccccc3)nc(N3CCOCC3)n2)cc1 [Example 781, N-(4-morpholin-4-yl-6-{4-[(pyridin-4-ylcarbamoyl)amino]phenyl}-1,3,5-triazin-2-yl)benzenesulfonamide] | 374 | IC50 (PI3K-α): 136 nM
O=C(Nc1ccc(C(=O)N2CCC(N3CCCC3)CC2)cc1)Nc1ccc(-c2nc(N3CCOCC3)nc(N3C[C@@H]4C[C@H]3CO4)n2)cc1 [Example 210, 1-(4-{4-morpholin-4-yl-6-[(1S,4S)-2-oxa-5-azabicyclo[2.2.1]hept-5-yl]-1,3,5-triazin-2-yl}phenyl)-3-{4-[(4-pyrrolidin-1-ylpiperidin-1-yl)carbonyl]phenyl}urea] | 31 | IC50 (PI3K-α): 6 nM
CN1CCN(c2ccc(NC(=O)Nc3ccc(-c4nc(N5CCSCC5)nc(N5C6CCC5COC6)n4)cc3)cc2)CC1 [Example 394, 1-(4-(4-(3-oxa-8-azabicyclo[3.2.1]octan-8-yl)-6-thiomorpholino-1,3,5-triazin-2-yl)phenyl)-3-(4-(4-methylpiperazin-1-yl)phenyl)urea] | 3230 | –
C[C@H]1COCCN1c1nc(-c2ccc(NC(=O)Nc3ccc(C(=O)N4CCNCC4)cc3)cc2)nc(N2C3CCC2COC3)n1 [Example 838, 1-(4-{4-[(3S)-3-methylmorpholin-4-yl]-6-(3-oxa-8-azabicyclo[3.2.1]oct-8-yl)-1,3,5-triazin-2-yl}phenyl)-3-[4-(piperazin-1-ylcarbonyl)phenyl]urea] | 69.5 | IC50 (PI3K-α): 4 nM
O=C(Nc1ccc(OCCO)cc1)Nc1ccc(-c2nc(N3C4CCC3COC4)nc(N3C4CCC3COC4)n2)cc1 [Example 372, 1-(4-(4,6-di(3-oxa-8-azabicyclo[3.2.1]octan-8-yl)-1,3,5-triazin-2-yl)phenyl)-3-(4-(2-hydroxyethoxy)phenyl)urea] | 7240 | –
